# Assay results: US20040152785A1, “Novel crystal of n-hydroxy-2 (s)-methyl-5-ethoxymethoxy-4(s)-[n-(4-phenoxyphenylcarbonyl)amino] pentanamide, process for their production and medicines containing the crystals as the active ingredient” (priority 2000, published 2004)
# Experiments:
# matrix metalloproteinase = conditions: as disclosed in WO 99/19296; cited from earlier work
# [1] = Oral absorption test: capsule formulations given orally to fed beagles, concentration in plasma; assay type: in vivo; conditions: beagle, 50 mg/kg
# Procedure: The compound of the present invention (2 g), DK ester SS (Daiichi Kogyo Seiyaku) and lactose (2.9 g) were weighed and the mixture was mixed slightly in a mortar and the mixture was filtered through 60 mesh strainer twice to give pharmaceutical powder. The pharmaceutical powder was filled in No.0 gelatin capsule 250 mg/cap each. By this method, capsule formulations containing type-A and type-C crystal were prepared respectively.
# A beagle was fed with solid food (240 g) and after 30 minutes above prepared capsules were administered in a stomach using sonde for oral administration and tap water (20 ml) was administered with sonde for oral administration.
# After administration, 15 minutes, 30 minutes, 1 hour, 2 hours and 3 hours taken a blood of 1 ml from cephalic vein using heparin dealt syringe. The taken sample was disposed under 12000 rpm for 2 minutes and plasma was separated and the concentration of the compound in plasma (μg/ml) was measured.
# The dose given to the beagle was 50 mg/kg and 4 beagles for type-A crystal and 3 beagles for type-C crystal.
# [2] = Stability test: preservation of crystal powder, DSC caloric transition (ΔH) and X-ray diffraction; assay type: physicochemical
# Procedure: Weighing out over approximately 50 mg of type-A crystal powder, it was preserved under the condition of
# 1) 40° C., 75% RH (relative humidity), unsealed for a month,
# 2) 40° C., sealed tightly for 6 months.
# The type-A crystal preserved under above conditions and another type-A crystal which was preserved at 5° C. were subjected to measurement of differential scanning calorimetry (DSC) and caloric transition (ΔH) per 1 g was calculated from endothermic peak chart (see FIGS. 14-16)
# ΔH=peak area/sample weight
compound,measurement,setting,value
"CCOCOC[C@H](C[C@H](C)C(=O)NO)NC(=O)c1ccc(Oc2ccccc2)cc1 [compound (I), N-hydroxy-2(S)-methyl-5-ethoxymethoxy-4(S)-[N-(4-phenoxyphenylcarbonyl)amino]pentanamide]",inhibitory activity against matrix metalloproteinase (MMP),matrix metalloproteinase,has an inhibitory activity against matrix metalloproteinase
"CCOCOC[C@H](C[C@H](C)C(=O)NO)NC(=O)c1ccc(Oc2ccccc2)cc1 [Type-C crystal, N-hydroxy-2(S)-methyl-5-ethoxymethoxy-4(S)-[N-(4-phenoxyphenylcarbonyl)amino]pentanamide, reference compound]","Cmax (maximum drug concentration), average value",[1]; plasma,2000 ng/mL
same,"AUC (area under the blood concentration-time curve), average value","[1]; plasma, sampling up to 3 hours",3500 ng·h/mL
"CCOCOC[C@H](C[C@H](C)C(=O)NO)NC(=O)c1ccc(Oc2ccccc2)cc1 [Type-A crystal, N-hydroxy-2(S)-methyl-5-ethoxymethoxy-4(S)-[N-(4-phenoxyphenylcarbonyl)amino]pentanamide]","concentration in plasma, comparison of crystals",[1],higher concentration in plasma than type-C crystal
same,AUC,"[1]; dog, plasma, po, AUC (area under the blood concentration-time curve), average value, sampling up to 3 hours",5100 ng·h/mL
same,Cmax,"[1]; dog, plasma, po, plasma, read-out: Cmax (maximum drug concentration), average value",3600 ng/mL
same,"ΔH (calorie variation of endothermic peak, absolute value)","[2]; 1 month, 40° C.-75% RH, unsealed",14.80 J/g
same,"ΔH (calorie variation of endothermic peak, absolute value)","[2]; 6 months, 40° C., sealed tightly",13.41 J/g
same,crystal stability (crystal transition on preservation),"[2]; 40° C.-75% RH a month and 40° C. 6 months, DSC and X-ray diffraction",stable crystal
same,"ΔH (calorie variation of endothermic peak, absolute value)",[2]; initial (type-A crystal preserved at 5° C.),13.40 J/g
